Assay results: patent publication US20150132328A1 (priority 2011, published 2015)
Where two headings read alike, the source gives them in different places.

Legend:
[1] = system: human leukocytes; settings: for Phagocytosis: peptide 10^-10M + zinc 10^-9M
Source text: In order to test a different effect of the proliferation, we decided to investigate the effect of peptide+zinc versus peptide+zinc+DTPA on human leukocytes phagocytosis.

[2] = system: antibodies against Newcastle; settings: 10 ng/dose with Newcastle vaccine
[3] = system: antibodies vs. LR.4 cells
Method: This was performed by flow cytometry. LR.4 cells were washed and incubated in serum dilutions obtained from mice, using as second antibody an antibody vs. mouse conjugated to fluoresce.

[4] = system: rats with rheumatoid arthritis
Source text: This produces that in the third week appears edema of the cephalic and caudal extremities, which can be measured with a vernier. Inflammation is due to the presence of the own autoimmune response against […] of the rat.

[5] = system: CD8 co-receptor; settings: With-A
Method: (§1) The Analysis was performed by flow cytometry, using fluorescence intensity histograms, which allowed us to identify three regions: expression negative, low and high.

[6] = system: CD4 co-receptor; settings: With-A
Method: as §1

Question: Peptide LEDGPKFL + Zinc [IMMP] was tested. Which Phagocytosis ([1]; 24 h) did it give?
Answer: 56 ± 2 arbitrary fluorescence intensity units

Question: And the Phagocytosis ([1]; 48 h)?
Answer: 185 ± 18 arbitrary fluorescence intensity units

Question: And the Increase of phagocytosis ([1]; 48 hours)?
Answer: about four times

Question: What about the “Antibody production against Newcastle (number of times the serum could be diluted with 100% of the response)” value ([2]; Day 13) of the same substance?
Answer: 0

Question: What about the “Antibody production against Newcastle (number of times the serum could be diluted with 100% of the response)” value ([2]; Day 23) of the same substance?
Answer: 18.0

Question: And the “Antibody production against Newcastle (number of times the serum could be diluted with 100% of the response)” value ([2]; Day 30)?
Answer: 64.5

Question: What about the “Antibody production against Newcastle (number of times the serum could be diluted with 100% of the response)” value ([2]; Day 37) of the same substance?
Answer: 60.2

Question: And the “% of LR.4 cells stained with the serum antibody” value (“% of LR.4 cells stained” below) ([3]; IMMP alone, no tumor, serum dilution 0)?
Answer: 0%

Question: And the “% of LR.4 cells stained” value ([3]; IMMP alone, no tumor, serum dilution 1:2)?
Answer: 0%

Question: And the “% of LR.4 cells stained” value ([3]; IMMP alone, no tumor, serum dilution 1:4)?
Answer: 0%

Question: And the “% of LR.4 cells stained” value ([3]; IMMP alone, no tumor, serum dilution 1:8)?
Answer: 0%

Question: What about the “% of LR.4 cells stained” value ([3]; IMMP alone, no tumor, serum dilution 1:16) of the same substance?
Answer: 0%

Question: What about the “% of LR.4 cells stained” value ([3]; IMMP alone, no tumor, serum dilution 1:32) of the same substance?
Answer: 0%

Question: What about the “% of LR.4 cells stained” value ([3]; IMMP alone, no tumor, serum dilution 1:64) of the same substance?
Answer: 0%

Question: And the “% of LR.4 cells stained” value ([3]; LR.4 + IMMP, serum dilution 0)?
Answer: 100%

Question: What about the “% of LR.4 cells stained” value ([3]; LR.4 + IMMP, serum dilution 1:2) of the same substance?
Answer: 100%

Question: And the “% of LR.4 cells stained” value ([3]; LR.4 + IMMP, serum dilution 1:4)?
Answer: 100%

Question: And the “% of LR.4 cells stained” value ([3]; LR.4 + IMMP, serum dilution 1:8)?
Answer: 100%

Question: And the “% of LR.4 cells stained” value ([3]; LR.4 + IMMP, serum dilution 1:16)?
Answer: 83%

Question: And the “% of LR.4 cells stained” value ([3]; LR.4 + IMMP, serum dilution 1:32)?
Answer: 40%

Question: And the “% of LR.4 cells stained” value ([3]; LR.4 + IMMP, serum dilution 1:64)?
Answer: 15%

Question: And the “Antibodies vs tumor relative to untreated group” value ([3]; mouse, in vivo)?
Answer: four times more antibodies

Question: What about the “Number of rats showing Inflammation 0%” value ([4]; AR + treatment) of the same substance?
Answer: 3

Question: And the “Number of rats showing Inflammation 50%” value ([4]; AR + treatment)?
Answer: 3

Question: What about the “Number of rats showing Inflammation 100% of palmar and plantar pad” value ([4]; AR + treatment) of the same substance?
Answer: 6

Question: And the “Number of rats showing Inflammation 0%” value ([4]; IMMP alone, no arthritis)?
Answer: 0

Question: And the “Number of rats showing Inflammation 50%” value ([4]; IMMP alone, no arthritis)?
Answer: 0

Question: And the “Number of rats showing Inflammation 100% of palmar and plantar pad” value ([4]; IMMP alone, no arthritis)?
Answer: 0

Question: And the “Animals with inflammation reduced at 50%” value ([4]; rat, in vivo)?
Answer: 25%

Question: And the “Animals with inflammation reduced at 100%” value ([4]; rat, in vivo)?
Answer: 25%

Question: What about the “Expression Intensity of CD8, Fluorescence, High” value ([5]; [IMMP] 10^−6 M) of the same substance?
Answer: 135.9 ± 3.3 arbitrary fluorescence intensity units

Question: What about the “Expression Intensity of CD8, Fluorescence, Low” value ([5]; [IMMP] 10^−6 M) of the same substance?
Answer: 49.9 ± 37.4 arbitrary fluorescence intensity units

Question: And the “Expression Intensity of CD8, Fluorescence, Negative” value ([5]; [IMMP] 10^−6 M)?
Answer: 3.1 ± 0.5 arbitrary fluorescence intensity units

Question: What about the “Expression Intensity of CD8, Fluorescence, High” value ([5]; [IMMP] 10^−7 M) of the same substance?
Answer: 134.5 ± 4.9 arbitrary fluorescence intensity units

Question: What about the “Expression Intensity of CD8, Fluorescence, Low” value ([5]; [IMMP] 10^−7 M) of the same substance?
Answer: 55.1 ± 4.9 arbitrary fluorescence intensity units

Question: What about the “Expression Intensity of CD8, Fluorescence, Negative” value ([5]; [IMMP] 10^−7 M) of the same substance?
Answer: 2.4 ± 0.9 arbitrary fluorescence intensity units

Question: What about the “Expression Intensity of CD8, Fluorescence, High” value ([5]; [IMMP] 10^−8 M) of the same substance?
Answer: 126.1 ± 4.7 arbitrary fluorescence intensity units

Question: What about the “Expression Intensity of CD8, Fluorescence, Low” value ([5]; [IMMP] 10^−8 M) of the same substance?
Answer: 39.2 ± 5.4 arbitrary fluorescence intensity units

Question: And the “Expression Intensity of CD8, Fluorescence, Negative” value ([5]; [IMMP] 10^−8 M)?
Answer: 3.2 ± 0.3 arbitrary fluorescence intensity units

Question: What about the “Expression Intensity of CD8, Fluorescence, High” value ([5]; [IMMP] 10^−9 M) of the same substance?
Answer: 139.8 ± 5.4 arbitrary fluorescence intensity units

Question: And the “Expression Intensity of CD8, Fluorescence, Low” value ([5]; [IMMP] 10^−9 M)?
Answer: 32.7 ± 5.0 arbitrary fluorescence intensity units

Question: What about the “Expression Intensity of CD8, Fluorescence, Negative” value ([5]; [IMMP] 10^−9 M) of the same substance?
Answer: 3.2 ± 0.1 arbitrary fluorescence intensity units

Question: And the “Expression Intensity of CD8, Fluorescence, High” value ([5]; [IMMP] 10^−10 M)?
Answer: 126.5 ± 7.3 arbitrary fluorescence intensity units

Question: What about the “Expression Intensity of CD8, Fluorescence, Low” value ([5]; [IMMP] 10^−10 M) of the same substance?
Answer: 45.8 ± 3.2 arbitrary fluorescence intensity units

Question: What about the “Expression Intensity of CD8, Fluorescence, Negative” value ([5]; [IMMP] 10^−10 M) of the same substance?
Answer: 4.1 ± 0.4 arbitrary fluorescence intensity units

Question: What about the “Expression Intensity of CD8, Fluorescence, High” value ([5]; [IMMP] 10^−11 M) of the same substance?
Answer: 196.1 ± 5.4 arbitrary fluorescence intensity units

Question: And the “Expression Intensity of CD8, Fluorescence, Low” value ([5]; [IMMP] 10^−11 M)?
Answer: 56.5 ± 4.0 arbitrary fluorescence intensity units

Question: What about the “Expression Intensity of CD8, Fluorescence, Negative” value ([5]; [IMMP] 10^−11 M) of the same substance?
Answer: 3.5 ± 0.1 arbitrary fluorescence intensity units

Question: What about the “Expression Intensity of CD8, Fluorescence, High” value ([5]; [IMMP] 10^−12 M) of the same substance?
Answer: 194.1 ± 7.3 arbitrary fluorescence intensity units

Question: What about the “Expression Intensity of CD8, Fluorescence, Low” value ([5]; [IMMP] 10^−12 M) of the same substance?
Answer: 58.1 ± 3.2 arbitrary fluorescence intensity units

Question: And the “Expression Intensity of CD8, Fluorescence, Negative” value ([5]; [IMMP] 10^−12 M)?
Answer: 2.0 ± 0.4 arbitrary fluorescence intensity units

Question: What about the “Expression Intensity of CD4, Fluorescence, High” value ([6]; [IMMP] 10^−6 M) of the same substance?
Answer: 193.0 ± 3.3 arbitrary fluorescence intensity units

Question: And the “Expression Intensity of CD4, Fluorescence, Low” value ([6]; [IMMP] 10^−6 M)?
Answer: 72.9 ± 7.4 arbitrary fluorescence intensity units

Question: What about the “Expression Intensity of CD4, Fluorescence, Negative” value ([6]; [IMMP] 10^−6 M) of the same substance?
Answer: 5.0 ± 0.9 arbitrary fluorescence intensity units

Question: What about the “Expression Intensity of CD4, Fluorescence, High” value ([6]; [IMMP] 10^−7 M) of the same substance?
Answer: 188.4 ± 4.9 arbitrary fluorescence intensity units

Question: And the “Expression Intensity of CD4, Fluorescence, Low” value ([6]; [IMMP] 10^−7 M)?
Answer: 68.6 ± 8.0 arbitrary fluorescence intensity units

Question: And the “Expression Intensity of CD4, Fluorescence, Negative” value ([6]; [IMMP] 10^−7 M)?
Answer: 4.5 ± 0.9 arbitrary fluorescence intensity units

Question: And the “Expression Intensity of CD4, Fluorescence, High” value ([6]; [IMMP] 10^−8 M)?
Answer: 181.1 ± 4.7 arbitrary fluorescence intensity units
